Type in all cases: in vivo, Rattus norvegicus
The test system of data set [1] is p53. The data set can be described thus: Immunohistochemical detection of p53 in liver sections. The following applies: liver immunohistochemistry; oral, 21 days. How it is done:
(§1) Adult male rats (n = 7 × 9 = 63), weighing 150–200 g, were randomized and divided into seven groups. Group I served as the control. Group II received the vehicle control (0.1 ml/100 g ethanol). Group III was treated with bromadiolone (B) at ½ LD₅₀ (0.8 mg/kg)[28]. Group IV received bromadiolone (0.8 mg/kg) + ciprofloxacin (Anti.20 mg/kg)[29]. Group V received bromadiolone (0.8 mg/kg) + ciprofloxacin (20 mg/kg) + vitamin D (Vit. D 35 mg/kg)[30]. Group VI received bromadiolone (0.8 mg/kg) + ciprofloxacin (20 mg/kg) + vitamin D (35 mg/kg) + cinnamon (Cin. 2 g/kg)[31]. Group VII received bromadiolone (0.8 mg/kg) + ciprofloxacin (20 mg/kg) + vitamin D (35 mg/kg) + aspirin (A. 150 mg/kg)[32]. All doses were administered orally to wild rats over 21 days. The chemical we used for the euthanizing process: rats were narcotized by Ketamine + xylazine injection (IP) and then sacrificed by slaughtering.
Using xylene, paraffin-embedded tissues were deparaffinized and then rehydrated through a graded series of ethanol solutions. Antigen retrieval was performed by boiling the slides in 1 mM EDTA. The sections were then incubated in 3% H2O2 for ten minutes, washed with wash buffer (1X PBS) for five minutes, and blocked for one hour at room temperature. A 1:1000 dilution of the p53 primary antibody was then applied. […]

The test system of data set [2] is liver DNA. Particulars: oral, 21 days. How it is done:
as §1
For the coated slides, 100 µL of cell suspension was mixed with 600 µL of low-melting agarose (0.8% in PBS). The coated slides were immersed for 15 min in a lysis solution containing 2.5% sodium dodecyl sulfate (SDS) and 0.045 M Tris-borate-EDTA (TBE) buffer at pH 8.4. The slides were then placed in an electrophoresis chamber filled with TBE buffer without SDS. Electrophoresis was conducted at 100 mA for two minutes at 2 V/cm. Staining was performed at 4 °C using 20 µg/mL ethidium bromide (EtBr). EtBr-stained DNA was visualized using a fluorescent microscope with a 40× objective and an excitation filter of 420–490 nm to detect DNA damage. Qualitative and quantitative assessments of tail length, tail moment, olive tail moment, and percentage of DNA in the head were determined using OpenComet software to evaluate five images.

Data set [3] concerns male wild rats. The data set can be described thus: Serum measurements (AST, ALT, Ca2+, RBCs, Hgb, PT). Particulars: oral, 21 days. How it is done:
as §1
(§2) Determination of ionized calcium, RBC count, Hb, and prothrombin time (PT) was conducted at a private biochemical laboratory in Assiut, Egypt, using a Genuri KT-6400 automatic hematology analyzer (China). ALT and AST activities in blood plasma were measured using specific kits (Boehringer Mannheim, Mannheim, Germany) according to the manufacturer’s instructions. […]. The concentration of reduced glutathione (GSH) was estimated based on[37] and measured using spectrophotometry.

Data set [4] concerns liver of male wild rats. Description: Hepatic lipid peroxidation (LPO) and reduced glutathione (GSH). The following applies: oral, 21 days. How it is done:
as §1, §2

Data set [5] concerns p21. The data set can be described thus: Western blot of liver tissue, p21. The following applies: Western blot normalized to β-actin, oral, 21 days. How it is done:
as §1
(§3) For the immunodetection and quantification of proteins such as p21 and cleaved caspase-3, markers of apoptotic cell death under various treatments, liver tissue was homogenized using RIPA lysis buffer. The samples were chopped and briefly sonicated on ice, and protein concentration was measured. Proteins (20 µg) were separated using SDS-PAGE and transferred to a nitrocellulose membrane. […] The optical densities of the bands were quantified and normalized to β-actin (1:5000) using ImageJ software.
(In western blotting, separated proteins are transferred to a membrane and probed.)

Data set [6] has as its system cleaved caspase-3. Description: Western blot of liver tissue, cleaved caspase-3. Particulars: Western blot normalized to β-actin, oral, 21 days. How it is done: as §1, §3

For the compound `O=c1oc2ccccc2c(O)c1C(CC(O)c1ccc(-c2ccc(Br)cc2)cc1)c1ccccc1` (centres unmarked) [Bromadiolone], in data set [1], the “increase in p53 levels compared to the control” value worked out at 60.74% and the “p53 immunoreactivity in liver sections” value is “moderate brown immunoreactivity”. Besides, in data set [2] (liver comet assay photomicrographs), the “degree of liver DNA damage by comet assay” value is on record as “moderate amount of damaged DNA”. Also, in data set [2] (liver comet assay), the “increase in olive tail moment (OTM) compared to the control” value is given as 710.02%, the “increase in tail DNA% (T.DNA%) compared to the control” value came to 222.35%, the “increase in tail length (TL) compared to the control” value is given as 155.04% and the “increase in tail moment (TM) compared to the control” value was determined as 506.09%. In data set [3] (control 4.640 ± 0.2943), the “Ca2+ serum, Mean ± SE” value stood at 13.15 ± 0.9675 mg/dL. Besides, in data set [3] (control 11.08 ± 0.1956), the “RBCs serum, Mean ± SE” value is given as 8.240 ± 0.5015 M/µl. The “Hgb serum, Mean ± SE” value in data set [3] (control 11.92 ± 0.3813) is 11.4 ± 0.2358 g/dL. The “PT (prothrombin time) serum, Mean ± SE” value in data set [3] (control 21.25 ± 2.212) was 37.43 ± 1.329 s. In data set [3] (control 92.37 ± 5.279), the “AST serum, Mean ± SE” value came to 130.8 ± 8.149 U/L. In data set [3] (control 184.8 ± 4.632), the “ALT serum, Mean ± SE” value turned out to be 225.5 ± 1.679 U/L. The “LPO, Mean ± SE” value in data set [4] (control 1.458 ± 0.1402) is 1.660 ± 0.1817 nmol/ mg protein. Besides, the “GSH, Mean ± SE” value in data set [4] (control 10.42 ± 0.4500) is 6.953 ± 0.1538 ng/mg protein. Besides, the “increase in p21 level compared to the control” value in data set [5] was found to be 96.65%. Further, the “increase in cleaved caspase-3 level compared to the control” value in data set [6] is reported as 75.92%.

The record behind these values is article PMC12689647, “Evaluation of bromadiolone combined with ciprofloxacin, vitamin D, aspirin, and cinnamon as an apoptosis-mediated rodenticide strategy” (Scientific Reports, 2025).
